# Assay results published in US20250144067A1, “PERSONALIZED STARVATION THERAPY FOR CANCER” (Faeth Therapeutics, Inc., priority 2021, published 2025).
# Structures can show the parent of a compound that is named as a salt. Where two headings read alike, the source gives them in different places.
# Key:
# [1] = test system: NCI-H292 lung cancer cells; assay: FDA drug screening, complete media vs cholesterol-free media with simvastatin (TABLE 2); format: cell-based, human
# [2] = test system: NCI-H292 lung cancer cells; assay: FDA drug screening, complete media vs cholesterol-free media without statin (TABLE 1); format: cell-based, human
# [3] = NCI-H292 cells, FDA drug library screen, cholesterol-free media with simvastatin 0.04 μM
# [4] = NCI-H292 cells, FDA drug library screen, complete media
# [5] = complete media minus cholesterol-free media + simvastatin, >0 enhanced anti-cancer activity, about 0 neutral, <0 antagonist
# [6] = NCI-H292 cells, cholesterol-free media without statin, FDA drug library screen
# [7] = NCI-H292 cells, complete media, FDA drug library screen
# [8] = complete vs cholesterol-free media, >0 enhanced anti-cancer activity, about 0 neutral, <0 antagonist
# [9] = NCI-H292 cells, drug in cholesterol-free media with simvastatin 0.04 μM
# [10] = NCI-H292 cells, drug in complete media
# [11] = complete media vs cholesterol-free media + simvastatin (0.04 μM), >0 enhanced anti-cancer activity, about 0 neutral, <0 antagonist
# [12] = Complete minus Cholesterol-free, >0 enhanced anti-cancer activity, about 0 neutral, <0 antagonist
# [13] = NCI-H292 cells, cholesterol-free media without statin
# [14] = NCI-H292 cells, cholesterol-free media with simvastatin 0.04 μM, FDA drug library screen (TABLE 2)
# [15] = NCI-H292 cells, complete media, FDA drug library screen (TABLE 2)
# [16] = complete media minus cholesterol-free media + simvastatin (0.04 μM), >0 enhanced anti-cancer activity, about 0 neutral, <0 antagonist
# [17] = Complete minus Cholesterol-free, greater than 0 enhanced anti-cancer activity, about 0 neutral, below 0 antagonist
# [18] = NCI-H292 cells, FDA drug library screen, cholesterol-free media without statin
# [19] = NCI-H292 cells, cholesterol-free media with simvastatin 0.04 μM, cell growth value in FDA drug screen
# [20] = NCI-H292 cells, complete media, cell growth value in FDA drug screen
# [21] = complete vs cholesterol-free media, greater than 0 enhanced anti-cancer activity, about 0 neutral, below 0 antagonists
# [22] = NCI-H292 cells, FDA library drug in cholesterol-free media with simvastatin 0.04 μM
# [23] = NCI-H292 cells, FDA library drug in complete media
# [24] = Complete minus Cholesterol-free, greater than 0 enhanced anti-cancer activity, about 0 neutral, below 0 antagonists
# [25] = NCI-H292 cells in cholesterol-free media without statin
# [26] = NCI-H292 cells in complete media
# [27] = Complete minus Cholesterol-free, […]
compound,measurement,setting,value
C[C@H](Cn1cnc2c(N)ncnc21)OCP(=O)(O)O.O [Tenofovir (hydrate)],Cholesterol-free media + simvastatin (0.04 μM),[1]; [3],1.824
same,Complete Media,[1]; [4],2.099
same,Difference,[1]; [5],0.27
same,Cholesterol-free,[2]; [6],0.8777
same,Complete,[2]; [7],1.281
same,Difference,[2]; [8],0.40
COC(=O)C1=C(C#N)NC(C)=C(C(=O)OC(C)C)C1c1cccc([N+](=O)[O-])c1 (stereo not shown) [Nilvadipine],Cholesterol-free media + simvastatin (0.04 μM),[1]; [9],1.579
same,Complete Media,[1]; [10],1.393
same,Difference,[1]; [11],−0.19
same,Difference,[2]; [12],−0.27
same,Cholesterol-free,[2]; [13],1.059
same,Complete,"[2]; NCI-H292 cells, complete media",0.7875
NS(=O)(=O)c1cc(Cl)c(Cl)c(S(N)(=O)=O)c1 [Dichlorphenamide],Cholesterol-free media + simvastatin (0.04 μM),[1]; [14],1.117
same,Complete Media,[1]; [15],1.073
same,Difference,[1]; [16],−0.04
same,Difference,[2]; [17],−0.08
same,Cholesterol-free,[2]; [18],1.046
same,Complete,[2]; [4],0.9714
NC(=O)C(c1ccccc1)(c1ccccc1)[C@@H]1CCN(CCc2ccc3c(c2)CCO3)C1 (racemic) [(±)-Darifenacin],Cholesterol-free media + simvastatin (0.04 μM),[1]; [3],0.9772
same,Complete Media,[1]; [4],0.8726
same,Difference,[1]; [11],−0.10
same,Cholesterol-free,[2]; [6],1.009
same,Complete,[2]; [7],1.18
same,Difference,[2]; [8],0.17
Sc1ncnc2nc[nH]c12 [6-Mercaptopurine],Cholesterol-free media + simvastatin (0.04 μM),[1]; [3],1.121
same,Complete Media,[1]; [4],0.9807
same,Difference,[1]; [11],−0.14
same,Difference,[2]; [12],−0.28
same,Cholesterol-free,[2]; [13],0.7087
same,Complete,"[2]; NCI-H292 cells, complete media",0.4285
O=C1Nc2ccc(Cl)cc2[C@@](C#CC2CC2)(C(F)(F)F)O1 [Efavirenz],Cholesterol-free media + simvastatin (0.04 μM),[1]; [19],1.215
same,Complete Media,[1]; [20],1.301
same,Difference,[1]; [5],0.09
same,Cholesterol-free,[2]; [13],1.108
same,Complete,"[2]; NCI-H292 cells, complete media",0.7866
same,Difference,[2]; [21],−0.32
Nc1nc2[nH]cc(CCc3ccc(C(=O)N[C@@H](CCC(=O)O)C(=O)O)cc3)c2c(=O)[nH]1 [Pemetrexed],Cholesterol-free media + simvastatin (0.04 μM),[1]; [14],0.2196
same,Complete Media,[1]; [15],0.2004
same,Difference,[1]; [16],−0.02
same,Difference,[2]; [12],−0.01
same,Cholesterol-free,[2]; [6],0.1659
same,Complete,[2]; [7],0.1596
CO[C@H]1/C=C/O[C@@]2(C)Oc3c(C)c(O)c4c(O)c(c(/C=N/N5CCN(C)CC5)c(O)c4c3C2=O)NC(=O)/C(C)=C\C=C\[C@H](C)[C@H](O)[C@@H](C)[C@@H](O)[C@@H](C)[C@H](OC(C)=O)[C@@H]1C [Rifampicin],Cholesterol-free media + simvastatin (0.04 μM),[1]; [22],1.219
same,Complete Media,[1]; [23],0.8641
same,Difference,[1]; [11],−0.36
same,Cholesterol-free,[2]; [6],0.7396
same,Complete,[2]; [7],1.143
same,Difference,[2]; [8],0.40
CC1(C)S[C@@H]2[C@H](NC(=O)[C@H](NC(=O)N3CCNC3=O)c3ccccc3)C(=O)N2[C@H]1C(=O)O [Azlocillin (sodium salt)],Cholesterol-free media + simvastatin (0.04 μM),[1]; [3],1.046
same,Complete Media,[1]; [4],0.9592
same,Difference,[1]; [11],−0.09
same,Difference,[2]; [17],−0.16
same,Cholesterol-free,[2]; [18],1.217
same,Complete,[2]; [4],1.06
CC(C(=O)O)c1cccc(C(=O)c2ccccc2)c1 (stereo not shown) [Ketoprofen],Cholesterol-free media + simvastatin (0.04 μM),[1]; [19],0.9565
same,Complete Media,[1]; [20],0.9752
same,Difference,[1]; [5],0.02
same,Cholesterol-free,[2]; [13],1.284
same,Complete,"[2]; NCI-H292 cells, complete media",0.8938
same,Difference,[2]; [21],−0.39
CN(Cc1ccc(C(C)(C)C)cc1)Cc1cccc2ccccc12 [Butenafine (Hydrochloride)],Cholesterol-free media + simvastatin (0.04 μM),[1]; [14],1.078
same,Complete Media,[1]; [15],1.061
same,Difference,[1]; [16],−0.02
same,Cholesterol-free,[2]; [13],1.694
same,Complete,"[2]; NCI-H292 cells, complete media",1.364
same,Difference,[2]; [21],−0.33
OCc1cc(C(O)CNCCCCCCOCCCCc2ccccc2)ccc1O (stereo not shown) [Salmeterol],Cholesterol-free media + simvastatin (0.04 μM),[1]; [3],0.6428
same,Complete Media,[1]; [4],0.8345
same,Difference,[1]; [5],0.19
same,Difference,[2]; [12],−0.01
same,Cholesterol-free,[2]; [6],0.865
same,Complete,[2]; [7],0.8548
CCc1cc(C(N)=S)ccn1 [Ethionamide],Cholesterol-free media + simvastatin (0.04 μM),[1]; [14],1.611
same,Complete Media,[1]; [15],1.611
same,Difference,[1]; [16],0.00
same,Difference,[2]; [24],−0.66
same,Cholesterol-free,[2]; [25],1.516
same,Complete,[2]; [26],0.857
NCC1(CC(=O)O)CCCCC1 [Gabapentin (hydrochloride)],Cholesterol-free media + simvastatin (0.04 μM),[1]; [14],1.09
same,Complete Media,[1]; [15],1.102
same,Difference,"[1]; complete media minus cholesterol-free media + simvastatin (0.04 μM), […]",0.01
same,Difference,[2]; [27],−0.52
same,Cholesterol-free,[2]; [25],1.513
same,Complete,[2]; [26],0.9969
CC(C)(Oc1ccc(C(=O)c2ccc(Cl)cc2)cc1)C(=O)O [Fenofibric acid],Cholesterol-free media + simvastatin (0.04 μM),[1]; [19],0.9473
same,Complete Media,[1]; [20],1.061
same,Difference,[1]; [5],0.11
same,Cholesterol-free,[2]; [13],1.435
same,Complete,"[2]; NCI-H292 cells, complete media",1.058
same,Difference,[2]; [21],−0.38
Cc1cc(-c2ccc(/N=N/c3ccc4c(S(=O)(=O)O)cc(S(=O)(=O)O)c(N)c4c3O)c(C)c2)ccc1/N=N/c1ccc2c(S(=O)(=O)O)cc(S(=O)(=O)O)c(N)c2c1O [Evans Blue],Cholesterol-free media + simvastatin (0.04 μM),[1]; [9],1.142
same,Complete Media,[1]; [10],0.9534
same,Difference,[1]; [11],−0.19
same,Difference,[2]; [12],−0.05
same,Cholesterol-free,[2]; [6],1.165
same,Complete,[2]; [7],1.11
C[C@H](CCC(=O)NCCS(=O)(=O)[O-])[C@H]1CC[C@H]2[C@@H]3[C@@H](O)C[C@@H]4C[C@H](O)CC[C@]4(C)[C@H]3CC[C@]12C.[Na+] [Taurochenodeoxycholic acid (sodium salt)],Cholesterol-free media + simvastatin (0.04 μM),[1]; [22],1.88
same,Complete Media,[1]; [23],1.535
same,Difference,"[1]; complete media vs cholesterol-free media + simvastatin (0.04 μM), […]",−0.35
same,Difference,[2]; [27],−0.22
same,Cholesterol-free,[2]; [13],0.9501
same,Complete,"[2]; NCI-H292 cells, complete media",0.7299
CC(C)N1CCN(c2ccc(OCC3COC(Cn4cncn4)(c4ccc(Cl)cc4Cl)O3)cc2)CC1 (stereo not shown) [Terconazole],Cholesterol-free media + simvastatin (0.04 μM),[1]; [3],0.6294
same,Complete Media,[1]; [4],1.003
same,Difference,[1]; [5],0.37
same,Cholesterol-free,[2]; [6],1.052
same,Complete,[2]; [7],1.158
same,Difference,[2]; [8],0.11
C[N+]12CCC(CC1)C(OC(=O)C(O)(c1ccccc1)c1ccccc1)C2.[Br-] (stereo not shown) [Clidinium (bromide)],Cholesterol-free media + simvastatin (0.04 μM),[1],1.456
same,Complete Media,[1],1.482
same,Difference,[1],0.03
same,Cholesterol-free,[2],1.17
same,Complete,[2],1.604
same,Difference,[2],0.43
CCc1cc2c(cc1N1CCC(N3CCOCC3)CC1)C(C)(C)c1[nH]c3cc(C#N)ccc3c1C2=O [Alectinib (Hydrochloride)],Cholesterol-free media + simvastatin (0.04 μM),[1]; [9],0.8676
same,Complete Media,[1]; [10],0.6682
same,Difference,[1]; [11],−0.20
same,Cholesterol-free,[2]; [6],0.7945
same,Complete,[2]; [7],1.394
same,Difference,[2]; [8],0.60
COc1ccc2c(O[C@@H]3C[C@H]4C(=O)N[C@]5(C(=O)NS(=O)(=O)C6CC6)C[C@H]5/C=C\CCCCN(C)C(=O)[C@@H]4C3)cc(-c3nc(C(C)C)cs3)nc2c1C [Simeprevir],Cholesterol-free media + simvastatin (0.04 μM),[1]; [3],0.845
same,Complete Media,[1]; [4],0.7552
same,Difference,[1]; [11],−0.09
same,Cholesterol-free,[2]; [6],0.5666
same,Complete,[2]; [7],0.795
same,Difference,[2]; [8],0.23
COc1ccc2cc3[n+](cc2c1OC)CCc1cc2c(cc1-3)OCO2.O.[Cl-] [Berberine (chloride hydrate)],Cholesterol-free media + simvastatin (0.04 μM),[1]; [14],0.3813
same,Complete Media,[1]; [15],0.3495
same,Difference,[1]; [16],−0.03
same,Difference,[2]; [17],−0.18
same,Cholesterol-free,[2]; [18],0.263
same,Complete,[2]; [4],0.07956
Oxolamine (citrate),Cholesterol-free media + simvastatin (0.04 μM),[1],0.8466
same,Complete Media,[1],1.01
same,Difference,[1],0.16
same,Cholesterol-free,[2],1.162
same,Complete,[2],0.9128
same,Difference,[2],−0.25
CC(=O)CC(c1ccc([N+](=O)[O-])cc1)c1c(O)c2ccccc2oc1=O (stereo not shown) [Acenocoumarol],Cholesterol-free media + simvastatin (0.04 μM),[1]; [3],2.014
same,Difference,[1]; [16],−0.90
same,Difference,[2]; [12],−0.28
same,Cholesterol-free,[2]; [13],1.889
same,Complete,"[2]; NCI-H292 cells, complete media",1.605
CCCCc1oc2ccccc2c1C(=O)c1cc(I)c(OCCN(CC)CC)c(I)c1 [Amiodarone (hydrochloride)],Cholesterol-free media + simvastatin (0.04 μM),[1]; [19],1.081
same,Complete Media,[1]; [20],1.107
same,Difference,[1]; [5],0.03
same,Difference,[2]; [24],−0.67
same,Cholesterol-free,[2]; [25],1.555
same,Complete,[2]; [26],0.8858
Dabigatran etexilate (mesylate),Cholesterol-free media + simvastatin (0.04 μM),[1]; [3],1.092
same,Complete Media,[1]; [4],0.9893
same,Difference,[1]; [11],−0.10
same,Difference,[2]; [12],−0.23
same,Cholesterol-free,[2]; [13],1.215
same,Complete,"[2]; NCI-H292 cells, complete media",0.9831
Rupatadine (Fumarate),Cholesterol-free media + simvastatin (0.04 μM),[1]; [3],0.9792
same,Complete Media,[1]; [4],1.536
same,Difference,[1]; [5],0.56
same,Difference,[2]; [12],−0.23
same,Cholesterol-free,[2]; [13],1.308
Clc1ccc(CCCOCCCN2CCCCC2)cc1 [Pitolisant (hydrochloride)],Cholesterol-free media + simvastatin (0.04 μM),[1]; [3],0.442
same,Complete Media,[1]; [4],1.031
same,Difference,[1]; [5],0.59
same,Cholesterol-free,[2]; [6],0.9791
same,Complete,[2]; [7],1.232
same,Difference,[2]; [8],0.25
